{"source": "ChEMBL document CHEMBL4371028", "about": "“Designing de Novo Small Molecules That Control Heat Shock Protein 70 (Hsp70) and Heat Shock Organizing Protein (HOP) within the Chaperone Protein-Folding Machinery” (J Med Chem, 2019)", "key": {"[1]": {"biological_target": "Stress-induced-phosphoprotein 1 (Homo sapiens) (UniProt P31948)", "sequence (P31948 whole entry, looked up)": "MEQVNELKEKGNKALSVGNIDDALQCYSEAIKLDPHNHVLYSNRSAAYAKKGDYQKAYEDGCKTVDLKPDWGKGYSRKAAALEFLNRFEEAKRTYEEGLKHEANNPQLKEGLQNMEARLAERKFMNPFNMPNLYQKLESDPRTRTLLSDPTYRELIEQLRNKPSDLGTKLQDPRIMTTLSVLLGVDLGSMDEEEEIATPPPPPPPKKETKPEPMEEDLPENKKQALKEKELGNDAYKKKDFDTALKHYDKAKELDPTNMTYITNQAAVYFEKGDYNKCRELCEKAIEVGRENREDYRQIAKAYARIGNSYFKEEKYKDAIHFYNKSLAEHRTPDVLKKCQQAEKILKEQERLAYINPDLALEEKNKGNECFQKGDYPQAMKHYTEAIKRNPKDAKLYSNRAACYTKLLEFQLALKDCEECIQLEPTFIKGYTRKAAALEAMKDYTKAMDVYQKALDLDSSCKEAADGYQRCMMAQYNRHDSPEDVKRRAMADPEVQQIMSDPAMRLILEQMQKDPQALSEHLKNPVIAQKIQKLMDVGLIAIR", "experiment": "Inhibition of (2S,8S,11S,14S)-2-(4-aminobutyl)-14-(3-guanidinopropyl)-8-(4-hydroxybenzyl)-11-(hydroxymethyl)-4,7,10,13,16,32-hexaoxo-36-((3aS,4S,6aR)-2-oxohexahydro-1H-thieno[3,4-d]imidazol-4-yl)-19,22,25,28-tetraoxa-3,6,9,12,15,31-hexaazahexatriacontan-1-oic acid binding to His-tagged human HOP expressed in Escherichia coli up to 200 uM by Western blot analysis"}, "[2]": {"species_on_record": "Homo sapiens", "experiment": "Binding affinity to human recombinant Hsp70 expressed in Escherichia coli in presence of 1% Triton-X-100 after 1 hr by Western blot analysis based pull down assay"}, "[3]": {"biological_target": "Heat shock protein HSP90 (Homo sapiens) (UniProt P07900+P08238)", "experiment": "Binding affinity to Hsp90 (unknown origin) at 10 to 200 uM after 1 hr by Western blot analysis based pull down assay", "format": "protein assay"}, "[4]": {"species_on_record": "Homo sapiens", "experiment": "Binding affinity to human recombinant Hsp70 expressed in Escherichia coli at 10 to 200 uM in presence of 1% Triton-X-100 after 1 hr by Western blot analysis based pull down assay"}}, "note": "Calls of active or inactive are those of the source. The calls are words filed in the database; no cut-off is given here. Peptide text beside a SMILES is read from it. * marks the point of attachment. Biotin = O=C1N[C@H]2[C@H](CS[C@H]2CCCCC(=O)*)N1; PEG4 = NCCOCCOCCOCCOCCC(=O)O", "data": [{"smiles": "N=C(N)NCCC[C@H](NC(=O)[C@H](CO)NC(=O)[C@H](Cc1ccc(O)cc1)NC(=O)CNC(=O)[C@@H](N)CCCCN)C(=O)O", "note": "(H-KGYSR-OH)", "values": [{"measurement": "inhibition", "setting": "[1]", "value": "Active"}]}, {"smiles": "N=C(N)NCCC[C@H](NC(=O)[C@H](CO)NC(=O)[C@H](Cc1ccc(O)cc1)NC(=O)CNC(=O)[C@H](CCCCN)NC(=O)CCOCCOCCOCCOCCNC(=O)CCCC[C@@H]1SC[C@@H]2NC(=O)N[C@@H]21)C(=O)O", "note": "({Biotin-PEG4}-KGYSR-OH)", "values": [{"measurement": "Activity", "setting": "[2]", "value": "Dose-dependent effect"}, {"measurement": "Activity", "setting": "[3]", "value": "inactive"}]}, {"smiles": "CC(C)C[C@H](NC(=O)[C@H](C)NC(=O)[C@H](C)NC(=O)CCOCCOCCOCCOCCNC(=O)CCCC[C@@H]1SC[C@@H]2NC(=O)N[C@@H]21)C(=O)N[C@@H](CCC(=O)O)C(=O)N[C@@H](Cc1ccccc1)C(=O)O", "note": "({Biotin-PEG4}-AALEF-OH)", "values": [{"measurement": "Activity", "setting": "[3]", "value": "inactive"}, {"measurement": "Activity", "setting": "[4]", "value": "inactive"}]}]}
